Assay results as given in ChEMBL document CHEMBL3885881, “DrugMatrix”.

Species: Rattus norvegicus
Assay: DrugMatrix - Regimen: Daily Repeat
Type: toxicity, organism-based, Sprague-Dawley
Set-up: regimen Daily Repeat, gender Male, age 6-8 weeks
Conditions: in vivo, po, route oral GAVAGE, vehicle .5 % CMC; for BASOPHIL / EOSINOPHIL / ERYTHROCYTE COUNT / HEMATOCRIT / HEMOGLOBIN / LEUKOCYTE COUNT / LYMPHOCYTE / MEAN CORPUSCULAR HEMOGLOBIN / MEAN CORPUSCULAR HEMOGLOBIN CONCENTRATION / MEAN CORPUSCULAR VOLUME / MONOCYTE / NEUTROPHIL / PLATELET COUNT: tissue Blood; for ALANINE AMINOTRANSFERASE / ALBUMIN / ALKALINE PHOSPHATASE / ASPARTATE AMINOTRANSFERASE / BLOOD UREA NITROGEN / CHLORIDE / CHOLESTEROL / CREATINE PHOSPHOKINASE / CREATININE / GLUCOSE / PHOSPHORUS / POTASSIUM / SODIUM / TOTAL BILIRUBIN / TOTAL PROTEIN: tissue Plasma
[1] = 0 mg/kg, 72 h, dose level Control, time 3 day
[2] = 0 mg/kg, 120 h, dose level Control, time 5 day
[3] = 25 mg/kg, 72 h, dose level Low, time 3 day
[4] = 25 mg/kg, 120 h, dose level Low, time 5 day

Which results are given for `N=C(N)NCCN1CCCCCCC1` [GUANETHIDINE]?
BASOPHIL [1]: 0%; EOSINOPHIL [1]: 0%; ERYTHROCYTE COUNT [1]: 6.34 x10E6/uL; HEMATOCRIT [1]: 37.62%; HEMOGLOBIN [1]: 14.82 G/DL; LEUKOCYTE COUNT [1]: 11.18 x10E3/uL; LYMPHOCYTE [1]: 87.5%; MEAN CORPUSCULAR HEMOGLOBIN [1]: 23.48 pg; MEAN CORPUSCULAR HEMOGLOBIN CONCENTRATION [1]: 39.5 G/DL; MEAN CORPUSCULAR VOLUME [1]: 59.45 fL; MONOCYTE [1]: 1.67%; NEUTROPHIL [1]: 10.83%; PLATELET COUNT [1]: 1074.83 x10E3/uL; ALANINE AMINOTRANSFERASE [1]: 36.5 u/L; ALBUMIN [1]: 3.9 G/DL; ALKALINE PHOSPHATASE [1]: 370.17 u/L; ASPARTATE AMINOTRANSFERASE [1]: 63.17 u/L; BLOOD UREA NITROGEN [1]: 16.83 mg/dL; CHLORIDE [1]: 99.33 MEQ/L; CHOLESTEROL [1]: 64.33 mg/dL; CREATINE PHOSPHOKINASE [1]: 127 u/L; CREATININE [1]: 0.55 mg/dL; GLUCOSE [1]: 173.5 mg/dL; PHOSPHORUS [1]: 10.08 mg/dL; POTASSIUM [1]: 6.23 MEQ/L; SODIUM [1]: 143.5 MEQ/L; TOTAL BILIRUBIN [1]: 0.52 mg/dL; TOTAL PROTEIN [1]: 6.35 G/DL; BASOPHIL [2]: 0%; EOSINOPHIL [2]: 0.17%; ERYTHROCYTE COUNT [2]: 6.12 x10E6/uL; HEMATOCRIT [2]: 37.08%; HEMOGLOBIN [2]: 14.82 G/DL; LEUKOCYTE COUNT [2]: 11.87 x10E3/uL; LYMPHOCYTE [2]: 83.33%; MEAN CORPUSCULAR HEMOGLOBIN [2]: 24.25 pg; MEAN CORPUSCULAR HEMOGLOBIN CONCENTRATION [2]: 39.97 G/DL; MEAN CORPUSCULAR VOLUME [2]: 60.65 fL; MONOCYTE [2]: 1.5%; NEUTROPHIL [2]: 15%; PLATELET COUNT [2]: 1042.83 x10E3/uL; ALANINE AMINOTRANSFERASE [2]: 46 u/L; ALBUMIN [2]: 3.82 G/DL; ALKALINE PHOSPHATASE [2]: 369.5 u/L; ASPARTATE AMINOTRANSFERASE [2]: 65 u/L; BLOOD UREA NITROGEN [2]: 16.33 mg/dL; CHLORIDE [2]: 100.67 MEQ/L; CHOLESTEROL [2]: 57.17 mg/dL; CREATINE PHOSPHOKINASE [2]: 130 u/L; CREATININE [2]: 0.53 mg/dL; GLUCOSE [2]: 163.33 mg/dL; PHOSPHORUS [2]: 9.53 mg/dL; POTASSIUM [2]: 6.27 MEQ/L; SODIUM [2]: 144.83 MEQ/L; TOTAL BILIRUBIN [2]: 0.55 mg/dL; TOTAL PROTEIN [2]: 6.32 G/DL; BASOPHIL [3]: 0%; EOSINOPHIL [3]: 0%; ERYTHROCYTE COUNT [3]: 6 x10E6/uL; HEMATOCRIT [3]: 35.93%; HEMOGLOBIN [3]: 14.07 G/DL; LEUKOCYTE COUNT [3]: 11.77 x10E3/uL; LYMPHOCYTE [3]: 86.33%; MEAN CORPUSCULAR HEMOGLOBIN [3]: 23.5 pg; MEAN CORPUSCULAR HEMOGLOBIN CONCENTRATION [3]: 39.17 G/DL; MEAN CORPUSCULAR VOLUME [3]: 60.07 fL; MONOCYTE [3]: 0%; NEUTROPHIL [3]: 13.67%; PLATELET COUNT [3]: 1321.67 x10E3/uL; ALANINE AMINOTRANSFERASE [3]: 33.67 u/L; ALBUMIN [3]: 3.63 G/DL; ALKALINE PHOSPHATASE [3]: 372.67 u/L; ASPARTATE AMINOTRANSFERASE [3]: 57.67 u/L; BLOOD UREA NITROGEN [3]: 11.33 mg/dL; CHLORIDE [3]: 98.67 MEQ/L; CHOLESTEROL [3]: 63.67 mg/dL; CREATINE PHOSPHOKINASE [3]: 142.33 u/L; CREATININE [3]: 0.43 mg/dL; GLUCOSE [3]: 175.67 mg/dL; PHOSPHORUS [3]: 12.27 mg/dL; POTASSIUM [3]: 5.97 MEQ/L; SODIUM [3]: 143.67 MEQ/L; TOTAL BILIRUBIN [3]: 0.33 mg/dL; TOTAL PROTEIN [3]: 5.8 G/DL; BASOPHIL [4]: 0%; EOSINOPHIL [4]: 0.67%; ERYTHROCYTE COUNT [4]: 5.92 x10E6/uL; HEMATOCRIT [4]: 35.83%; HEMOGLOBIN [4]: 14.4 G/DL; LEUKOCYTE COUNT [4]: 11.83 x10E3/uL; LYMPHOCYTE [4]: 89.67%; MEAN CORPUSCULAR HEMOGLOBIN [4]: 24.33 pg; MEAN CORPUSCULAR HEMOGLOBIN CONCENTRATION [4]: 40.17 G/DL; MEAN CORPUSCULAR VOLUME [4]: 60.63 fL; MONOCYTE [4]: 1%; NEUTROPHIL [4]: 8.67%; PLATELET COUNT [4]: 1170.33 x10E3/uL; ALANINE AMINOTRANSFERASE [4]: 33 u/L; ALBUMIN [4]: 3.53 G/DL; ALKALINE PHOSPHATASE [4]: 229.67 u/L; ASPARTATE AMINOTRANSFERASE [4]: 54.67 u/L; BLOOD UREA NITROGEN [4]: 10.33 mg/dL; CHLORIDE [4]: 100.33 MEQ/L; CHOLESTEROL [4]: 57.67 mg/dL; CREATINE PHOSPHOKINASE [4]: 129.33 u/L; CREATININE [4]: 0.47 mg/dL; GLUCOSE [4]: 170.67 mg/dL; PHOSPHORUS [4]: 11.13 mg/dL; POTASSIUM [4]: 5.9 MEQ/L; SODIUM [4]: 145.33 MEQ/L; TOTAL BILIRUBIN [4]: 0.2 mg/dL; TOTAL PROTEIN [4]: 5.7 G/DL
